Experimental data from the supplement of paper PMC10307832.

Tests used:
Assay in all cases: relative viability (nuclei count vs DMSO), 5 days (fraction); higher = more cells survive
[1] = compound: C[C@@]1(C(=O)Nc2ccc(F)nc2)CCCN1c1nc(Nc2cc(C3CC3)n[nH]2)c2cccn2n1 + Cc1nc(NC(=O)N2CCC[C@H]2C(N)=O)sc1-c1ccnc(C(C)(C)C(F)(F)F)c1 [Alpelisib] (partner 2 µM)
How it was run: (§1)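 Relative viability equals treated-well nuclei counts divided by vehicle-well nuclei counts. Counts came from 4× images of lung cancer cell lines grown in 1536-well plates for 5 days after pin-tool dosing on the day after seeding. Dosing used one drug alone or a fixed anchor-drug dose plus five library-drug doses (not always all listed) in √10 steps, and values are medians of duplicate plates.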

[2] = compound: C[C@@]1(C(=O)Nc2ccc(F)nc2)CCCN1c1nc(Nc2cc(C3CC3)n[nH]2)c2cccn2n1 + Nc1nc2[nH]cc(CCc3ccc(C(=O)N[C@@H](CCC(=O)O)C(=O)O)cc3)c2c(=O)[nH]1 [Pemetrexed] (partner 0.2 µM)
How it was run: as §1

[3] = compound: CC1(C)CNc2cc(NC(=O)c3cccnc3NCc3ccncc3)ccc21 [Motesanib] + Cc1nc(NC(=O)N2CCC[C@H]2C(N)=O)sc1-c1ccnc(C(C)(C)C(F)(F)F)c1 [Alpelisib] (partner 2 µM)
How it was run: as §1

[4] = compound: CC1(C)CNc2cc(NC(=O)c3cccnc3NCc3ccncc3)ccc21 [Motesanib] + N=C(N)NC(=N)NCCc1ccccc1 [Phenformin] (partner 250 µM)
How it was run: as §1

UMC-11
relative viability ([1]; first compound 0.04 µM): 0.955
relative viability ([1]; first compound 0.1265 µM): 1.1
relative viability ([1]; first compound 0.4 µM): 1.01
relative viability ([1]; first compound 1.265 µM): 1.1
relative viability ([2]; first compound 0.04 µM): 0.773
relative viability ([2]; first compound 0.1265 µM): 0.827
relative viability ([2]; first compound 0.4 µM): 0.705
relative viability ([2]; first compound 1.265 µM): 0.722
relative viability ([3]; first compound 0.01 µM): 0.923
relative viability ([3]; first compound 0.03162 µM): 0.973
relative viability ([3]; first compound 0.1 µM): 0.981
relative viability ([3]; first compound 0.3162 µM): 1.03
relative viability ([3]; first compound 1 µM): 1.03
relative viability ([4]; first compound 0.01 µM): 0.29
relative viability ([4]; first compound 0.03162 µM): 0.33
relative viability ([4]; first compound 0.1 µM): 0.324
relative viability ([4]; first compound 0.3162 µM): 0.33
relative viability ([4]; first compound 1 µM): 0.345
